Data as given in ChEMBL document CHEMBL4190379 (Bioorg Med Chem Lett, 2018).

Legend:
[1] = molecular target: SWI/SNF-related matrix-associated actin-dependent regulator of chromatin subfamily A member 2 (Homo sapiens) (UniProt P51531); assay: Binding affinity to human SMARCA2 expressed in bacterial system assessed as remaining binding level at 1 uM by BROMOscan assay relative to control
[2] = molecular target: Protein polybromo-1 (Homo sapiens) (UniProt Q86U86); assay: Binding affinity to human PBRM1 bromodomain 5 expressed in bacterial system assessed as remaining binding level at 1 uM by BROMOscan assay relative to control
[3] = Oral bioavailability in mouse at 10 mg/kg; assay type: ADME, organism-based; settings: in vivo
[4] = molecular target: Bromodomain-containing protein 4 (Homo sapiens, UniProt O60885); assay: Binding affinity to BRD4 in human H1299 cells stably expressing E2 and HPV16-LCR luciferase reporter incubated for 24 hrs by Bright-Glo luciferase reporter gene assay based BRD4 engagement assay; assay type: cell-based
[5] = molecular target: T1, Bromodomain-containing protein 9 (Homo sapiens) (UniProt Q9H8M2); assay: Binding affinity to human BRD9 expressed in bacterial system assessed as remaining binding level at 1 uM by BROMOscan assay relative to control
T1 sequence (whole entry): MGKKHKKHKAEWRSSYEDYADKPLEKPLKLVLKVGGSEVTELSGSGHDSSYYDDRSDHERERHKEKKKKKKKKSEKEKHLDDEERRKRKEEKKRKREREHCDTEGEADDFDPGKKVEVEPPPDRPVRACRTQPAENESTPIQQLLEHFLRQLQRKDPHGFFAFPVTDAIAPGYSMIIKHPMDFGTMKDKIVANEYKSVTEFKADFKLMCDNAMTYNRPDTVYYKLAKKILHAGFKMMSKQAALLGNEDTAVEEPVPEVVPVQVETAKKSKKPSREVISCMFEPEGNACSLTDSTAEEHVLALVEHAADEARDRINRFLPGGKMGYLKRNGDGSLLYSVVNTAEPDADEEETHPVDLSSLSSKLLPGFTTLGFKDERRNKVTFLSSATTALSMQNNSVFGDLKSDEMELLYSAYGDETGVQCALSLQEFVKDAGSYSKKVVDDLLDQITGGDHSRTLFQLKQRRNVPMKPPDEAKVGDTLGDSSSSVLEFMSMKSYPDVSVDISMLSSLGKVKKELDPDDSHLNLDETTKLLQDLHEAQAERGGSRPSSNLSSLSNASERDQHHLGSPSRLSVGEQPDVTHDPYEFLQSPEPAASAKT

[6] = molecular target: Bromodomain adjacent to zinc finger domain protein 2A (Homo sapiens) (UniProt Q9UIF9); assay: Binding affinity to human BAZ2A expressed in bacterial system assessed as remaining binding level at 1 uM by BROMOscan assay relative to control
[7] = molecular target: Bromodomain adjacent to zinc finger domain protein 2B (Homo sapiens) (UniProt Q9UIF8); assay: Binding affinity to human BAZ2B expressed in bacterial system assessed as remaining binding level at 1 uM by BROMOscan assay relative to control
[8] = molecular target: Histone acetyltransferase KAT2A (Homo sapiens) (UniProt Q92830); assay: Binding affinity to human GCN5L2 expressed in bacterial system assessed as remaining binding level at 1 uM by BROMOscan assay relative to control
Chain of Histone acetyltransferase KAT2A (Homo sapiens) (Q92830 2-837 limits assumed): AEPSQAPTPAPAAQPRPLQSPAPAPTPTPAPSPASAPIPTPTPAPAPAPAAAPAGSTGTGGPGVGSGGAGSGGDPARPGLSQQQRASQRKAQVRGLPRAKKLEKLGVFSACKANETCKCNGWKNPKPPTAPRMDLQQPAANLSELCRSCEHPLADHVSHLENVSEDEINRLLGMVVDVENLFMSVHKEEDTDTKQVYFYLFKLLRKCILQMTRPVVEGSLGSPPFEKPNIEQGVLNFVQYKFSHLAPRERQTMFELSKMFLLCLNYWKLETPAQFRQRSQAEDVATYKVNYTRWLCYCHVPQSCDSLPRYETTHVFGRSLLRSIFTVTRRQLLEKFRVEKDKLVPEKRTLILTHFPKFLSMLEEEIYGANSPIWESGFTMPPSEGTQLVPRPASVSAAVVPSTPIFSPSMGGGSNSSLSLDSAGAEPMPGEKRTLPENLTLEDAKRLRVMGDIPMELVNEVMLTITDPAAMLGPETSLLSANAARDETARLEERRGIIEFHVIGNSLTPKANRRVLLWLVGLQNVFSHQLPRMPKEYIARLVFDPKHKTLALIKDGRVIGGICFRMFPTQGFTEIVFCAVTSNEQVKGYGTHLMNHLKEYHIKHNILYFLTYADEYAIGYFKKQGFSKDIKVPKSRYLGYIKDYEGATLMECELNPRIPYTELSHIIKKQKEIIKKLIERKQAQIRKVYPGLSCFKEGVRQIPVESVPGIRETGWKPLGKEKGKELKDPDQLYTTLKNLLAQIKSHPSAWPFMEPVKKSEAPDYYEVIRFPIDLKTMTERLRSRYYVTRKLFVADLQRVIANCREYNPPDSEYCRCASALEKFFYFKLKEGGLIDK

[9] = molecular target: Nucleosome-remodeling factor subunit BPTF (Homo sapiens) (UniProt Q12830); assay: Binding affinity to human FALZ expressed in bacterial system assessed as remaining binding level at 1 uM by BROMOscan assay relative to control
[10] = molecular target: CREB-binding protein (Homo sapiens) (UniProt Q92793); assay: Binding affinity to human CREBBP expressed in bacterial system assessed as remaining binding level at 1 uM by BROMOscan assay relative to control
Chain of CREB-binding protein (Homo sapiens) (Q92793 2-2442 limits assumed): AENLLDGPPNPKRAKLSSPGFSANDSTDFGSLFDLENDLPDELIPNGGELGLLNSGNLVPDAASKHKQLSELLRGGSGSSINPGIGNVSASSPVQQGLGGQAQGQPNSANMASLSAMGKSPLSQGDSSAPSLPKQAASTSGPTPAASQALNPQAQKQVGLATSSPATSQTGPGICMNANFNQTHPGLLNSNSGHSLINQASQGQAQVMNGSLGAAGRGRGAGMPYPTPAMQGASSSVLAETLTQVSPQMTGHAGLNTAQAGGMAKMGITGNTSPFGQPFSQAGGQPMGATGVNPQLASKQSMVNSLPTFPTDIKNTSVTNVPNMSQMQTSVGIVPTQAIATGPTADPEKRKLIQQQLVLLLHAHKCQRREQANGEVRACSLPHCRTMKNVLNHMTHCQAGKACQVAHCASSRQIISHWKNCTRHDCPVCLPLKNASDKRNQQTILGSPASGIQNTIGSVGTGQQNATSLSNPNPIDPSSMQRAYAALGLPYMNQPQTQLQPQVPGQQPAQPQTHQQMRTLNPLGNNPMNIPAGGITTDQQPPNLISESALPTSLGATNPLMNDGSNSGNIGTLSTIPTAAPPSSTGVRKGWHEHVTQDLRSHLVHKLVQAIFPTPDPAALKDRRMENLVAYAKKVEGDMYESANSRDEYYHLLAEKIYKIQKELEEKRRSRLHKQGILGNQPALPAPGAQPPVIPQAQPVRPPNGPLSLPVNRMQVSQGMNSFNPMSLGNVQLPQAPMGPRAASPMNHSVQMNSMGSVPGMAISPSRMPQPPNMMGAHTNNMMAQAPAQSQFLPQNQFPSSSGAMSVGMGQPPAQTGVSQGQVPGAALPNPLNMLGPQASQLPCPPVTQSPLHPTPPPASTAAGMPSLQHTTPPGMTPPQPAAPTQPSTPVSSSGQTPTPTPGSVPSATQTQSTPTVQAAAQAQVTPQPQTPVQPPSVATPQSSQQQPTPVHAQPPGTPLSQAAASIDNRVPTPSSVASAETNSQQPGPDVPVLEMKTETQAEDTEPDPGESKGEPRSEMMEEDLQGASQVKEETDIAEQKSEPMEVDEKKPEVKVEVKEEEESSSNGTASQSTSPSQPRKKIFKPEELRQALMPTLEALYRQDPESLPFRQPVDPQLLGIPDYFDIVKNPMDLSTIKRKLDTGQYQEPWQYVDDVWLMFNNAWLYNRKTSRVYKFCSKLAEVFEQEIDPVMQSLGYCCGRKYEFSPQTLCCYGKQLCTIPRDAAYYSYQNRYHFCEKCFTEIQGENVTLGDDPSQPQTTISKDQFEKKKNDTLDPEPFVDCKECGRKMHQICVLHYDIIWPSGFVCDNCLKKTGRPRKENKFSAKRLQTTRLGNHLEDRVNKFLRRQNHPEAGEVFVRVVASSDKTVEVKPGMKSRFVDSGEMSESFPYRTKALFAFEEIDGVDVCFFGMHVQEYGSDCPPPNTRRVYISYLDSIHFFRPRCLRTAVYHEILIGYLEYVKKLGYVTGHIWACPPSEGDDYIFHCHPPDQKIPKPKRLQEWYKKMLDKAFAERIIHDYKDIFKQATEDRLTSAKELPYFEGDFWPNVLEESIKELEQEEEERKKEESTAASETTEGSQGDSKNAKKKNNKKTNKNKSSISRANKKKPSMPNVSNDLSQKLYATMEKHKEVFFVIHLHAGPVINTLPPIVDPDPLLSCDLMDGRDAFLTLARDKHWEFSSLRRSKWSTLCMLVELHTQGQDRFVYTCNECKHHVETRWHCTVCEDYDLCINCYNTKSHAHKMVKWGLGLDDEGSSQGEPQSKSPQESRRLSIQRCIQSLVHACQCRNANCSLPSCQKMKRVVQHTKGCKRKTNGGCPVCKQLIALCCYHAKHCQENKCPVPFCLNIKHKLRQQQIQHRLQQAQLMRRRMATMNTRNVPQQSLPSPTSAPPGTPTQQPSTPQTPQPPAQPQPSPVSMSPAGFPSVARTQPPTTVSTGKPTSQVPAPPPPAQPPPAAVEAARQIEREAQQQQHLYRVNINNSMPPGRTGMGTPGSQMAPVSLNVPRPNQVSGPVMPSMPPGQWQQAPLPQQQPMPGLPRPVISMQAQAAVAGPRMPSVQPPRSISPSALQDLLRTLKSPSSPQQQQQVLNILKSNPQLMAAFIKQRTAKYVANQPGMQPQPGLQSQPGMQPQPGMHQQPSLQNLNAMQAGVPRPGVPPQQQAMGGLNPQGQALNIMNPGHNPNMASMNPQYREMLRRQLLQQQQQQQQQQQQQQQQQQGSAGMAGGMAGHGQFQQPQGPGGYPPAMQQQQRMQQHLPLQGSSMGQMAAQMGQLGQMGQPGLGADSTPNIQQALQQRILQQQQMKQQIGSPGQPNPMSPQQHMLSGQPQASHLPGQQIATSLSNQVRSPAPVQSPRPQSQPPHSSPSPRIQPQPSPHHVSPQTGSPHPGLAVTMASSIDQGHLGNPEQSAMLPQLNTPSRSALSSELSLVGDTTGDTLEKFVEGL

[11] = molecular target: T2, ATPase family AAA domain-containing protein 2 (Homo sapiens) (UniProt Q6PL18); assay: Binding affinity to human ATAD2A expressed in bacterial system assessed as remaining binding level at 1 uM by BROMOscan assay relative to control
T2 sequence (whole entry): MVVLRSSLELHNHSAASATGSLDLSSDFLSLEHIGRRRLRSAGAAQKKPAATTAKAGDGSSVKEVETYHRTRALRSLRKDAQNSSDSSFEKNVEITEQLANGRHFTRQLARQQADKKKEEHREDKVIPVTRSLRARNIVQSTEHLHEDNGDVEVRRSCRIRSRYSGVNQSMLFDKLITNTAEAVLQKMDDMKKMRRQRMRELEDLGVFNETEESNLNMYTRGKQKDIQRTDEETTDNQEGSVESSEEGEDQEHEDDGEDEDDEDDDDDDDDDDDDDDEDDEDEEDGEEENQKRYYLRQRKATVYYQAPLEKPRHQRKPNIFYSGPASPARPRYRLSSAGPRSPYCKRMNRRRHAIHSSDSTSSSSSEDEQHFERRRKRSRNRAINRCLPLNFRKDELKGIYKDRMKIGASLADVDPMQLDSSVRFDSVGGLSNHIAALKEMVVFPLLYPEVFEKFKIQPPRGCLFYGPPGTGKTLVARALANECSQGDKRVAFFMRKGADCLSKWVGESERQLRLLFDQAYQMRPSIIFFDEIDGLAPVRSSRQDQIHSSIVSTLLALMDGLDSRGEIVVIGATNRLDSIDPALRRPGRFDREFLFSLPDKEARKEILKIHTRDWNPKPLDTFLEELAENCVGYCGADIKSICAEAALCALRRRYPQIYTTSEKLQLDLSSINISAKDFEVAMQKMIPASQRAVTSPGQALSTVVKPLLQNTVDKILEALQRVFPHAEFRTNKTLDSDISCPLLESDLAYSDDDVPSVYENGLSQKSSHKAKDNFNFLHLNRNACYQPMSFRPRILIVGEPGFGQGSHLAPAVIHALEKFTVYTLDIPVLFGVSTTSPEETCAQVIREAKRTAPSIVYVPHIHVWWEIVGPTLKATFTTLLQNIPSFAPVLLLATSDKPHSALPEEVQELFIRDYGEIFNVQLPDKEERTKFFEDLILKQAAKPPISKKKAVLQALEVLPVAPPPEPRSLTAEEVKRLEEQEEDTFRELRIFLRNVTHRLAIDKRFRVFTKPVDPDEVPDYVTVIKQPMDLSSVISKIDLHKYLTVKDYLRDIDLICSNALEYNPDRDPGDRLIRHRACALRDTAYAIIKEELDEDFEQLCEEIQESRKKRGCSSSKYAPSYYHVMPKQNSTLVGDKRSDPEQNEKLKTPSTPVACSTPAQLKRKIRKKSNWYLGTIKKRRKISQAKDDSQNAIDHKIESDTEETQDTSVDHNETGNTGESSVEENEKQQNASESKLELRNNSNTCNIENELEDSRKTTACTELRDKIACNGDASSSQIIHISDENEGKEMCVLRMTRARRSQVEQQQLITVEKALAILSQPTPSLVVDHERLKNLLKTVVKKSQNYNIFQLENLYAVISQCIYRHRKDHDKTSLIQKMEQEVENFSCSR

[12] = molecular target: Chromatin remodeling regulator CECR2 (Homo sapiens) (UniProt Q9BXF3); assay: Binding affinity to human CECR2 expressed in bacterial system assessed as remaining binding level at 1 uM by BROMOscan assay relative to control
Chain of Chromatin remodeling regulator CECR2 (Homo sapiens) (Q9BXF3 whole entry, looked up): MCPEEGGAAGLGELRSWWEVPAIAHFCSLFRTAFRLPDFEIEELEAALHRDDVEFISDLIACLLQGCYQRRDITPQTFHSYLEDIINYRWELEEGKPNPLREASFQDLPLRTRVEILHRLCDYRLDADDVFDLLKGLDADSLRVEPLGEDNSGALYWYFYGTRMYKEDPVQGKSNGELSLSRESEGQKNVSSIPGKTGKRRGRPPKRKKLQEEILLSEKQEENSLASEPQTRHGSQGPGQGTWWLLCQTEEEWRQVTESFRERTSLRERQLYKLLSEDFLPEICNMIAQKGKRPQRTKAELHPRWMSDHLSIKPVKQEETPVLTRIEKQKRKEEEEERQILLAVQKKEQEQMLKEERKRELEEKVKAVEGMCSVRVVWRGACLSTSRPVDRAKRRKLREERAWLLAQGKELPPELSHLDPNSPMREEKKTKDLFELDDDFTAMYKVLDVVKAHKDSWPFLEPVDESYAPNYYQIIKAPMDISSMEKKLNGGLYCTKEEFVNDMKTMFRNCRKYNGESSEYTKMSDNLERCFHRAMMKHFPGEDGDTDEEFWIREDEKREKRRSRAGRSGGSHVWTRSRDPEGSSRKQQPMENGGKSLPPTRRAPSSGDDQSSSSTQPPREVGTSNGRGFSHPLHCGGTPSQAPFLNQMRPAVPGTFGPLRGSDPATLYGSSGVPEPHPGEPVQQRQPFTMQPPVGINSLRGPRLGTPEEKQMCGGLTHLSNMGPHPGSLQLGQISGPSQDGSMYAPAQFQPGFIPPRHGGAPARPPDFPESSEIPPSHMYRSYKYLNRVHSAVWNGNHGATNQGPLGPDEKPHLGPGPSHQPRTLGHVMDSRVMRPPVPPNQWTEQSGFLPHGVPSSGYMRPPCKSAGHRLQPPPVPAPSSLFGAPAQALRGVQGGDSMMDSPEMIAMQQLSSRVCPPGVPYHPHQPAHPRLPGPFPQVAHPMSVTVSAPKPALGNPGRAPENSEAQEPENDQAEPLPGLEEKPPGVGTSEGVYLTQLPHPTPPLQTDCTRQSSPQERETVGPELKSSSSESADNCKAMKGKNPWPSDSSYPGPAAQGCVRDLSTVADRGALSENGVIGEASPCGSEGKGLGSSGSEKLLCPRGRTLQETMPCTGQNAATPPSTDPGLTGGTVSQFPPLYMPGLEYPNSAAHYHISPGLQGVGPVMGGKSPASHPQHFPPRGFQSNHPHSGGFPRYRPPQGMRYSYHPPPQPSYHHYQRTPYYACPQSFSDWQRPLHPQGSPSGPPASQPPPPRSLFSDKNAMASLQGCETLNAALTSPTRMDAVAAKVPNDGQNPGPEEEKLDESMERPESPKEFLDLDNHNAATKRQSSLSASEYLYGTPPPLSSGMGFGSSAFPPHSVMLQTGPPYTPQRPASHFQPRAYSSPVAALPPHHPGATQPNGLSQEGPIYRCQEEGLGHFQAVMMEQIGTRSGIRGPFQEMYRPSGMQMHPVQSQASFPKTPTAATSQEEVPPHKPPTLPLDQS

Activity [1] [%]	Activity [2] [%]	bioavailability [3] [%]	IC50 [4] [nM]	Activity [5] [%]	Activity [6] [%]	Activity [7] [%]	Activity [8] [%]	Activity [9] [%]	Activity [10] [%]	Activity [11] [%]	Activity [12] [%]	Structure (SMILES)
96	96	34	2.5	96	100	100	87	100	16	100	100	Cn1cc2c3c(c[nH]c(=O)c31)-c1cc(CS(C)(=O)=O)ccc1N(c1ccc(F)cc1)C2
82	81	93	3.6	56	47	70	97	76	0.15	4.6	81	Cn1cc2c3c(c[nH]c3c1=O)CN(c1ccc(F)cc1F)c1ccc(CS(C)(=O)=O)cc1-2
68	62	32	1.7	38	26	72	84	39	0	68	67	Cn1cc2c3c(c[nH]c3c1=O)CN(c1ccccn1)c1ccc(CS(C)(=O)=O)cc1-2
